In patent US20230087994A1, “TARGETED BIFUNCTIONAL DEGRADERS” (YALE UNIVERSITY, priority 2019, published 2023):

Tests used:
HepG2 cells [1] = test: DNP-AF3-mediated endocytosis of fluorescently labeled α-DNP antibody by HepG2 cells (flow cytometry); type: cell-based, human; conditions: 40 nM DNP-AF3, 100 nM antibody; ASF 2.07 μM; AF and GalNAc 1.25 mM; FIG. 105
Experimental: The intracellular fluorescence of cells that were incubated at 37° C. with both fluorescently labeled α-DNP antibody and DNP-AF3 for a given amount of time was examined. Cells were then washed, removed from the plate with trypsin, and subjected to flow cytometry. Trypsin treatment is expected to cleave ASGPR and surface-bound α-DNP antibody from cells, and therefore the cellular fluorescence observed in these assays is expected to arise only from internalized antibodies.
It was then determined if reagents which inhibit ternary complex formation inhibit endocytosis mediated by DNP-AF3. In order to account for non-specific antibody association with cells, the mean fluorescence intensity of an aliquot of cells which had been treated with α-DNP antibody but not DNP-AF3 was subtracted from each reading. […] In the presence of 2.38 μM (0.1 mg/mL) ASOR, the cell population fluorescence was decreased to 4.66e5 (FIG. 105); at this ASOR concentration, ternary complex formation is decreased by approximately 70%. Because ternary complex is not inhibited completely at this concentration of ASOR, it is expected that productive endocytic events are still taking place.

α-DNP antibody [2] = test: Depletion of α-DNP antibody from serum in mice (ELISA); type: in vivo; conditions: i.p.; FIG. 79A
HepG2 cells [3] = test: DNP-GN3-mediated endocytosis of fluorescently labeled α-DNP antibody by adherent HepG2 cells; type: cell-based, human; conditions: competitive binders at high concentrations; FIG. 88
α-DNP antibody [4] = test: Depletion of α-DNP antibody from serum in mice (ELISA); type: in vivo; conditions: negative control compound; FIG. 95
Experimental: FIG. 94 illustrates that serum levels of α-DNP antibody decrease more rapidly following repeated treatment with DNP-GN3. Serum antibody levels were measured using an ELISA assay. Each experimental group contained three mice. Statistical differences in experiments involving in vivo depletion of α-DNP antibody were assessed by repeated measures two-way ANOVA with Tukey's tests for post-hoc comparison of simple effects between each of the treatment groups and PBS.
Single doses of DNP-GN3 were also found to be efficacious at mediating α-DNP antibody depletion, albeit less effectively than daily dosing (FIG. 96). […] Therefore, it was concluded that DNP-GN3 is able to mediate the depletion of a monoclonal antibody from serum, and functions across a wide range of target protein concentrations and dosing regimens.
DNP-GN3 was also found to be efficacious in depleting polyclonal α-DNP antibody from serum collected from mice immunized with DNP-keyhole limpet haemocyanin (KLH) (FIG. 97). […] Thus, the small molecule DNP-GN3 is not restricted in function to only monoclonal mouse antibodies, but is also effective at removing polyclonal α-DNP antibodies from circulation in mice.

[5] = test system: ASGPR on the surface of HepG2 cells; test: DNP-AF3-mediated ternary complex formation: α-DNP antibody association with HepG2 cells (flow cytometry); type: cell-based, human; conditions: 40 nM DNP-AF3, 100 nM α-DNP antibody; FIG. 99; read-out: IC50, inhibition of DNP-AF3-mediated ternary complex formation
Experimental: DNP-AF3 utilizes trivalent display of a higher affinity ASGPR ligand to engage the receptor. First, the effect of DNP-AF3 concentration on α-DNP antibody association with cells was determined (FIG. 98). In these experiments, a constant amount of α-DNP antibody and cells was incubated with various concentrations of DNP-AF3. The mean fluorescence intensity of the cell population was measured using flow cytometry. In order to account for background cellular fluorescence and non-DNP-AF3 mediated antibody association with cells, the mean fluorescence intensity of a sample of cells which had been treated with α-DNP antibody but not DNP-AF3 was subtracted from each data point.
Next, whether increasing concentrations of a competitive binder of the α-DNP antibody inhibits ternary complex formation was investigated. […] However, different preparations of the HepG2 cells and/or compound gave varying mean fluorescence intensity for the cell population between different independent experimental replicates. Therefore, for competition studies, inhibition of ternary complex formation was reported rather than mean fluorescence intensity of the cell population. 100% ternary complex formation is corrected to the fluorescence of a cell population treated with both 40 nM DNP-AF3 and 100 nM α-DNP antibody, while 0% ternary complex formation is corrected to a mixture of cells and α-DNP antibody without DNP-AF3.

[6] = Tolerability of DNP-GN3 and DNP-OH3 in mice (body weight, AST, ALT); type: in vivo; conditions: all tested concentrations; FIGS. 93A-93C
Experimental: FIGS. 93A-93C illustrate that DNP-GN3 and DNP-OH3 are not toxic to mice at all tested concentrations. FIG. 93A: mouse body weight following treatment with DNP-GN3 or DNP-OH3. Statistical differences were analyzed by T test. FIG. 93B: levels of aspartate transaminase (AST) in treated mice. Dashed lines represent the normal range. FIG. 93C: levels of alanine transaminase (ALT) in treated mice. Dashed lines represent the normal range.

[7] = test system: ASGPR on the surface of immortalized human hepatocyte HepG2 cells; test: DNP-GN3-mediated ternary complex formation: association of fluorescently labeled α-DNP antibody with HepG2 cells in suspension; type: cell-based; conditions: competition; FIG. 86B-86C; read-out: IC50, decrease of DNP-GN3-mediated cellular fluorescence
Description: It was investigated whether DNP-GN3 could mediate the formation of a ternary complex between a fluorescently labeled α-DNP antibody and ASGPR on the surface of immortalized human hepatocyte HepG2 cells in suspension. […] The observed bell-shaped response to DNP-GN3 concentration is consistent with the prozone effect commonly observed in systems wherein a ternary complex is formed.

Compound: O=C(CCOCC(COCCC(=O)NCCOCCOCCO)(COCCC(=O)NCCOCCOCCO)NC(=O)CNC(=O)COCCOCCOCCNc1ccc([N+](=O)[O-])cc1[N+](=O)[O-])NCCOCCOCCO [DNP-OH3, reference compound]
- effect on DNP-AF3-mediated α-DNP antibody endocytosis (HepG2 cells [1]): decreased to near-background levels
- degradation of injected anti-DNP IgG antibodies in mouse serum (α-DNP antibody [2]): did not show such effect
- effect on DNP-GN3-mediated α-DNP antibody endocytosis (HepG2 cells [3]): significantly decreased
- antibody depletion from serum (α-DNP antibody [4]): No accelerated antibody depletion
- IC50 [5]: 40.6 nM
- toxicity to mice [6]: not toxic
- IC50 [7]: 36 nM
